# Test results published in article PMC6273231 (Molecules, 2016).
# Target: influenza virus neuraminidase (NA) (Influenza A virus, UniProt Q6DPL2)
# Conditions: enzyme inhibition assay in vitro
# influenza virus neuraminidase (NA), sequence (Q6DPL2 whole entry, looked up): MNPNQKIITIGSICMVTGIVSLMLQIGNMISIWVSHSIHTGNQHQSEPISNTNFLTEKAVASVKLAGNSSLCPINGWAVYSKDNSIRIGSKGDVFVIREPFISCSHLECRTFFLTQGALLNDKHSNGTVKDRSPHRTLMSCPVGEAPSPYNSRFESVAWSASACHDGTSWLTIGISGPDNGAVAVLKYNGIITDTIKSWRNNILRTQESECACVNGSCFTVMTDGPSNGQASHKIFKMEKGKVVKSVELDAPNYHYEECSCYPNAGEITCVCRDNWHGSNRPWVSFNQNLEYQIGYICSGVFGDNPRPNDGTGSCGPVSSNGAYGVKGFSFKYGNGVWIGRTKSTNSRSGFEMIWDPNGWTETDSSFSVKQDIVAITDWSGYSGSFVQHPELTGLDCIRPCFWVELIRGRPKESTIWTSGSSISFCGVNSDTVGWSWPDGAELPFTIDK
structure (smiles),measurement,value
"O=C(OC[C@H]1O[C@@H](OC(=O)c2cc(O)c(O)c(O)c2)[C@H](OC(=O)c2cc(O)c(O)c(O)c2)[C@@H](OC(=O)c2cc(O)c(O)c(O)c2)[C@@H]1OC(=O)c1cc(O)c(O)c(O)c1)c1cc(O)c(O)c(O)c1 [pentagalloylglucose, Pentagalloyl glucose]",NA inhibitory activity compared with the positive control Oseltamivir acid (in words),stronger activity against NA than Oseltamivir acid
C[C@@]12C[C@@]3(O)O[C@@H](O1)[C@]1(COC(=O)c4ccccc4)[C@H]3C[C@@]12O[C@@H]1O[C@H](CO)[C@@H](O)[C@H](O)[C@H]1O [Paeoniflorin],NA inhibitory activity compared with the positive control Oseltamivir acid (in words),stronger activity against NA than Oseltamivir acid
C[C@]12C[C@@H](O)[C@@H]3C[C@@]1(O[C@@H]1O[C@H](CO)[C@@H](O)[C@H](O)[C@H]1O)[C@]3(COC(=O)c1ccccc1)C(=O)O2 [Albiflorin],NA inhibitory activity compared with the positive control Oseltamivir acid (in words),stronger activity against NA than Oseltamivir acid
C[C@@]12C[C@@]3(O)O[C@@H](O1)[C@]1(COC(=O)c4ccccc4)[C@H]3C[C@@]12O[C@@H]1O[C@H](COC(=O)c2ccccc2)[C@@H](O)[C@H](O)[C@H]1O [Benzoylpaeoniflorin],NA inhibitory activity compared with the positive control Oseltamivir acid (in words),stronger activity against NA than Oseltamivir acid
